# Test results: patent US20250136722A1, “CYTOTOXICITY TARGETING CHIMERAS” (GLAXOSMITHKLINE INTELLECTUAL PROPERTY DEVELOPMENT LIMITED, priority 2021, published 2025)
# “And” between values parts separate entries of the source, which are not always exact repeats. Equal values may be shown once.
# Key:
# [1] = tested on: endogenous target monocytes in human PBMC; test: PBMC ex vivo monocyte depletion flow cytometry assay (Example 200); assay type: cell-based; conditions: with anti-cotinine antibody SEQ ID NO: 11/12, 18-24 hours, read-out: Ex Vivo Depletion Assay pEC50 (converted)
# Experimental: A human PBMC (peripheral blood mononuclear cells) monocyte depletion flow cytometry assay was developed to screen compounds in a 384-well plate format. This assay incorporated endogenous natural killer cells to deplete endogenous target monocytes.
# To screen compounds in the human PBMC monocyte depletion flow cytometry assay, 11-point dose-response curves were made from 1 mM stocks in neat DMSO by serially diluting an ARM compound of Formula (I) four-fold into a 384-well plate row-wise. These serially diluted compounds were then stamped into a flat bottom polypropylene 384-well plate (Greiner Bio-One) at 100 nL/well. Fifty microliters of 30 μg/mL anti-cotinine antibody having a heavy chain sequence of SEQ ID NO: 11 and a light chain sequence of SEQ ID NO: 12 (rabbit variable region with human IgG1 Fc domain containing a DE mutation (S239D/1332E)) that had been diluted in assay medium (RPMI 1640 (Gibco) containing 10% fetal bovine serum (Gibco), 1% Glutamax (Gibco) and 1% sodium pyruvate (Corning) was added to the wells of the plate. The plate was centrifuged for 1 min at 500 rpm (revolutions per minute) and then shaken for 5 min at room temperature. The plate was incubated for 15 minutes at 37° C./5% CO2.
# Frozen PBMC cells (HemaCare BioResearch) were thawed and centrifuged at 1,200 rpm for 4 minutes. The cells were diluted to a cell density of 2×10^6 cells/mL in assay medium. Fifty microliters of the diluted cells were added to the wells of the plate. The plate was centrifuged for 1 min at 500 rpm and incubated for 18-24 hours at 37° C./5% CO2.
# After 18-24 hours incubation, 2 μL of 6.25 μg human FC block (BD Pharmingen) that was diluted in assay medium was added to the wells of the plate. The plate was centrifuged for 1 minute at 500 rpm and then incubated at room temperature for 15 minutes. Five microliters of 750 nM Helix NP NIR (Biolegend) that had been diluted in assay medium was added to the wells of the plate. Nine microliters of antibody cocktail containing 1/5 diluted fluorescein isothiocyanate (FITC) labeled anti-CD45 antibody (Beckman Coulter), PC7 labeled anti-CD14 antibody (Beckman Coulter) and phycoerythrin (PE) anti-CD4 antibody (Beckman Coulter) was then added to the wells of the plate. The plate was centrifuged for 1 min at 500 rpm and incubated for 30 minutes at 4-8° C. Samples from the plate were run on BD FACS Canto II flow cytometer and data was analyzed using FlowJo software.
# ARMs compounds of Formula (I) of the invention were tested for the ability to deplete monocytes in the above assay in one or more experimental runs and the results are shown in Table 3 below. Potency of the compounds of the invention is reported as a pEC50 value. The pEC50 value is the negative log of the EC50 value, wherein the EC50 value is the half maximal effective concentration measured in molar (M). For compounds tested in more than one experimental run, the pEC50 value is reported as an average or as the individual values measured
# [2] = target: T1, CHOK1 cells engineered to overexpress human CCR2 (Homo sapiens, UniProt P41597); test: Antibody dependent cellular cytotoxicity (ADCC) reporter assay (Example 199); assay type: cell-based; conditions: with anti-cotinine antibody SEQ ID NO: 11/12; CHOK1-human CCR2 target cells, Jurkat FcγRIIIa NFAT-luciferase reporter cells; 12-18 hours; read-out: ADCC Reporter Assay pEC50 (converted)
# T1 construct: expressed in transfected cells; host or cells: CHOK1 cells
# Summary of the method: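 Potency is reported as pEC50 from a nonlinear fit, averaged over runs, using luciferase signal divided by that of compound-free wells. The readout comes from NFAT-luciferase Jurkat cells expressing FcγRIIIa, mixed for 12–18 h with human CCR2-overexpressing CHOK1 cells, 1 pM–10 μM ARM compound and 0.01–200 μg/mL Fc-enhanced anti-cotinine IgG1.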
# [3] = target: Anti-cotinine antibody (SEQ ID NO: 11 / SEQ ID NO: 12, rabbit variable region with human IgG1 Fc domain); test: Binding of anti-cotinine antibody to ARM compounds by SPR, Biacore T200, 37° C. (Example 202); conditions: pH 7.4, rabbit variable region/human IgG1 Fc antibody captured on protein A
# Summary of the method: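 Run at 37° C. in 10 mM HEPES pH 7.4, 150 mM NaCl, 0.005% P20, 1% DMSO. Compound titrated from 200 nM (five 3-fold steps) over protein A-captured antibody, with 200/2000 s association/dissociation. 1:1 kinetic fit gave kon, koff, Kd and residence time (1/koff); pKd averaged where runs repeated.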
# [4] = target: human alpha1 nicotinic acetylcholine (nACh) receptor (Homo sapiens, UniProt P02708+Q07001); test: Nicotinic acetylcholine receptor antagonism assay, IONFlux automated patch clamp (Example 203); assay type: cell-based; conditions: for Emax at 100 µM: maximum percentage antagonism at maximum concentration tested 100 μM; for Emax at 100 µM / Emax at 10 µM: read-out: Maximum Response (%); for IC50: nAChR antagonism, ACh stimulated, patch clamp; for Emax at 10 µM: maximum percentage antagonism at maximum concentration tested 10 μM
# Summary of the method: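 Human α1 nAChR-expressing cells were preincubated with compound (top 10 μM or 100 μM), then stimulated with 10 mM ACh; peak currents were recorded by IONFlux automated patch clamp. Percent inhibition versus ACh-alone control was vehicle- and rundown-corrected, then fitted to give IC50, with maximal antagonism at the top concentration; recordings with control current <500 pA were excluded.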
# human alpha1 nicotinic acetylcholine (nACh) receptor, sequence (P02708 21-457): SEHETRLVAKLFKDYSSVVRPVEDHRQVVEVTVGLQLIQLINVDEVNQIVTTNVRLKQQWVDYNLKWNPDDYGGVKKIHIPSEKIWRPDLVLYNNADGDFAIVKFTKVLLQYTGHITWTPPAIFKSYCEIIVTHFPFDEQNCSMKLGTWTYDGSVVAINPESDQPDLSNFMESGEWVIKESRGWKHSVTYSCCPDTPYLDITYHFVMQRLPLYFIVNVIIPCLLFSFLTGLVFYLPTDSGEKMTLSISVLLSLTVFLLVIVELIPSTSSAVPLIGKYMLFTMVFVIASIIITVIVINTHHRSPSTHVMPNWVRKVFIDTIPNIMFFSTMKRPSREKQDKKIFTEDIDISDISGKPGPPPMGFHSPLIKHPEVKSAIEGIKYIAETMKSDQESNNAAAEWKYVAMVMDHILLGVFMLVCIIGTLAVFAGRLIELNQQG
# human alpha1 nicotinic acetylcholine (nACh) receptor, sequence (P11230 24-501 partner): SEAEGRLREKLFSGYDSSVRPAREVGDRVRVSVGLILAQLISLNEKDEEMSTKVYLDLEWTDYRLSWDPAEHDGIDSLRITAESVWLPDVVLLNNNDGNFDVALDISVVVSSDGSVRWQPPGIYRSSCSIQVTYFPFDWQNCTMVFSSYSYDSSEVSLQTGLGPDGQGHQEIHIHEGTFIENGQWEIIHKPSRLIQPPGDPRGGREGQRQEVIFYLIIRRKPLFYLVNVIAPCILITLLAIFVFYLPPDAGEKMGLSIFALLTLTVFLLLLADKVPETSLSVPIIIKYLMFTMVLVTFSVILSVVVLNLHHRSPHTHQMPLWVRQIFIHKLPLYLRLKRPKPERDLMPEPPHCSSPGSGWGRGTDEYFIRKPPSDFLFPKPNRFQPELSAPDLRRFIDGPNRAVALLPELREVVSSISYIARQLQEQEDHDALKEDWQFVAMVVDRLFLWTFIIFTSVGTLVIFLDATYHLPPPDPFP
# human alpha1 nicotinic acetylcholine (nACh) receptor, sequence (Q07001 22-517): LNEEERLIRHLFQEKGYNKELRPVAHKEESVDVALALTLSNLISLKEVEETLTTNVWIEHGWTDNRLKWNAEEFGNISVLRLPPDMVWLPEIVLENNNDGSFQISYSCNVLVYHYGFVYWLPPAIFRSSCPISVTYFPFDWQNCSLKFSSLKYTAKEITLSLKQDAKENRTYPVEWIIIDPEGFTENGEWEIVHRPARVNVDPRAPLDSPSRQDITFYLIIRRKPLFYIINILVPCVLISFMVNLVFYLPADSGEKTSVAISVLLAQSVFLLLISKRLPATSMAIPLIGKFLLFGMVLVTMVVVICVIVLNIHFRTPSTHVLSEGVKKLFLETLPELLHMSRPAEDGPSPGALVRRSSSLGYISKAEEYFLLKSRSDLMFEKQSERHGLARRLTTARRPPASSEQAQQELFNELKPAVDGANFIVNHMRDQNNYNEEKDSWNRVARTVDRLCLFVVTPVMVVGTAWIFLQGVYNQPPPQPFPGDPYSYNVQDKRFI
Emax at 10 µM [4],SMILES,EC50 [1],EC50 [2],pKd of Antibody for ARM Compound of Formula (I) [3],Emax at 100 µM [4],IC50 [4]
,"CC(C)N(C)[C@@H]1CC[C@H](N2CC[C@H](Nc3ncnc4ccc(C(F)(F)F)cc34)C2=O)[C@H](NC(=O)C2CCC(N3CCC(S(=O)(=O)NCCCCCCNC(=O)[C@H]4CC(=O)N(C)[C@@H]4c4cccnc4)CC3)CC2)C1 (single isomer, unassigned) [compound 149]",0.251 nM,,,,
,CC(C)N(C)[C@@H]1CCC(N2CC[C@H](Nc3ncnc4ccc(C(F)(F)F)cc34)C2=O)[C@H](NC(=O)CCOCCOCCOCCOCCNC(=O)[C@H]2CC(=O)N(C)[C@@H]2c2cccnc2)C1 (stereo partly shown) [Example 39],2510 nM,,,,
,CC(C)N(C)C1CCC(N2CC[C@H](Nc3ncnc4ccc(C(F)(F)F)cc34)C2=O)[C@H](N[C@H]2CC[C@@H](C(=O)NCCOCCOCCOCCOCCNC(=O)[C@H]3CC(=O)N(C)[C@@H]3c3cccnc3)CC2)C1 (stereo partly shown) [Example 67],3.98 nM,,,,
,"CC(C)N(C)[C@@H]1CC[C@H](N2CC[C@H](Nc3ncnc4ccc(C(F)(F)F)cc34)C2=O)[C@H](NC(=O)CNC(=O)[C@H]2CC[C@@H](NC(=O)CCOCCOCCNC(=O)[C@H]3CC(=O)N(C)[C@@H]3c3cccnc3)CC2)C1 [Example 137, (2S,3S)-N-(2-(2-(3-(((1S,4s)-4-((2-(((1R,2S,5R)-5-(Isopropyl(methyl)amino)-2-((S)-2-oxo-3-((6-(trifluoromethyl)quinazolin-4-yl)amino)pyrrolidin-1-yl)cyclohexyl)amino)-2-oxoethyl)carbamoyl)cyclohexyl)amino)-3-oxopropoxy)ethoxy)ethyl)-1-methyl-5-oxo-2-(pyridin-3-yl)pyrrpolidine-3-carboxamide]",,1.67 nM,9.336,62%,70 µM
,"CC(C)N(C)[C@@H]1CC[C@H](N2CC[C@H](Nc3ncnc4ccc(C(F)(F)F)cc34)C2=O)[C@H](NC(=O)C2CCN(C3CCN(C(=O)CCCCCCCNC(=O)[C@@H]4CC(=O)N(C)[C@H]4c4cccnc4)CC3)CC2)C1 [Example 154, N-((1R,2S,5R)-5-(Isopropyl(methyl)amino)-2-((S)-2-oxo-3-((6-(trifluoromethyl)quinazolin-4-yl)amino)pyrrolidin-1-yl)cyclohexyl)-1′-(8-((2R,3R)-1-methyl-5-oxo-2-(pyridin-3-yl)pyrrolidine-3-carboxamido)octanoyl)-[1,4′-bipiperidine]-4-carboxamide]",0.501 nM,2.51 nM,,,
,CC(C)N(CCOCCOCCC(=O)N[C@H]1CC[C@@H](C(=O)N[C@@H]2C[C@H](N(C)C(C)C)CC[C@@H]2N2CC[C@H](Nc3ncnc4ccc(C(F)(F)F)cc34)C2=O)CC1)C(=O)CCNC(=O)[C@H]1CC(=O)N(C)[C@@H]1c1ccccc1 [Example 178],0.398 nM,,,,
,"CC(C)N(C)[C@@H]1CC[C@H](N2CC[C@H](Nc3ncnc4ccc(C(F)(F)F)cc34)C2=O)[C@H](NC(=O)[C@H]2CC[C@@H](NC(=O)CCOCCNC(=O)CCNC(=O)CCNC(=O)[C@H]3CC(=O)N(C)[C@@H]3c3cccnc3)CC2)C1 [Example 182, (2S,3S)-N-(3-((3-((2-(3-(((1S,4s)-4-(((1R,2S,5R)-5-(Isopropyl(methyl)amino)-2-((S)-2-oxo-3-((6-(trifluoromethyl)quinazolin-4-yl)amino)pyrrolidin-1-yl)cyclohexyl)carbamoyl)cyclohexyl)amino)-3-oxopropoxy)ethyl)amino)-3-oxopropyl)amino)-3-oxopropyl)-1-methyl-5-oxo-2-(pyridin-3-yl)pyrrolidine-3-carboxamide]",,0.514 nM and 0.191 nM,9.117,61.9%,76.4 µM
,"CC(C)N(C)[C@@H]1CC[C@H](N2CC[C@H](Nc3ncnc4ccc(C(F)(F)F)cc34)C2=O)[C@H](NC(=O)CCOCCC(=O)N[C@H]2C[C@@H](C(=O)NCCOCCNC(=O)[C@H]3CC(=O)N(C)[C@@H]3c3cccnc3)C2)C1 [Example 186, (2S,3S)-N-(2-(2-((1S,3R)-3-(3-(3-(((1R,2S,5R)-5-(Isopropyl(methyl)amino)-2-((S)-2-oxo-3-((6-(trifluoromethyl)quinazolin-4-yl)amino)pyrrolidin-1-yl)cyclohexyl)amino)-3-oxopropoxy)propanamido)cyclobutane-1-carboxamido)ethoxy)ethyl)-1-methyl-5-oxo-2-(pyridin-3-yl)pyrrolidine-3-carboxamide]",,0.151 nM,9.1435,55.2%,31.8 µM
,CC(C)N(C)[C@@H]1CC[C@H](N2CC[C@H](Nc3ncnc4ccc(C(F)(F)F)cc34)C2=O)[C@H](NC(=O)CCOCCC(=O)N[C@H]2C[C@H](C(=O)NCCOCCNC(=O)[C@H]3CC(=O)N(C)[C@@H]3c3cccnc3)C2)C1 [Example 187],,0.324 nM,9.104,63.7%,71.1 µM
74%,"CC(C)N(C)[C@@H]1CC[C@H](N2CC[C@H](Nc3ncnc4ccc(C(F)(F)F)cc34)C2=O)[C@H](NC(=O)CCCN2CCC3(CCN(CCCNC(=O)[C@H]4CC(=O)N(C)[C@@H]4c4cccnc4)CC3)CC2)C1 [Example 191, (2S,3S)-N-(3-(9-(4-(((1R,2S,5R)-5-(Isopropyl(methyl)amino)-2-((S)-2-oxo-3-((6-(trifluoromethyl)quinazolin-4-yl)amino)pyrrolidin-1-yl)cyclohexyl)amino)-4-oxobutyl)-3,9-diazaspiro[5.5]undecan-3-yl)propyl)-1-methyl-5-oxo-2-(pyridin-3-yl)pyrrolidine-3-carboxamide]",,0.424 nM,9.68,,2.95 µM
,"CC(C)N(C)[C@@H]1CC[C@H](N2CC[C@H](Nc3ncnc4ccc(C(F)(F)F)cc34)C2=O)[C@H](NC(=O)[C@H]2CC[C@H](C(=O)NCCCOCCCCOCCCNC(=O)[C@H]3CC(=O)N(C)[C@@H]3c3cccnc3)CC2)C1 [Example 194, (1 r,4R)-N^1-((1R,2S,5R)-5-(Isopropyl(methyl)amino)-2-((S)-2-oxo-3-((6-(trifluoromethyl)quinazolin-4-yl)amino)pyrrolidin-1-yl)cyclohexyl)-N^4-(3-(4-(3-((2S,3S)-1-methyl-5-oxo-2-(pyridin-3-yl)pyrrolidine-3-carboxamido)propoxy)butoxy)propyl)cyclohexane-1,4-dicarboxamide]",,0.275 nM,9.5415,44.9%,> 100 µM
4.1%,CC(C)N(C)[C@@H]1CC[C@H](N2CC[C@H](Nc3ncnc4ccc(C(F)(F)F)cc34)C2=O)[C@H](NC(=O)[C@H]2CC[C@H](C3CCN(C(=O)CCOCCOCCNC(=O)[C@H]4CC(=O)N(C)[C@@H]4c4cccnc4)CC3)CC2)C1 [compound 73],,7.94 nM,9.8185,,> 10 µM
